Laboratory results published in patent publication EP0299975B1, “COMPOSITION FOR ARRESTING ANGIOGENESIS AND CAPILLARY, CELL OR MEMBRANE LEAKAGE” (Angiogenics Limited, priority 1986, dated 1987).

Assays:
[1] = tested on: tumor angiogenesis; conditions: hamster cheek pouch, under certain conditions; cited from earlier work
[2] = cited from earlier work
[3] = tested on: angiogenesis; test: Steroids tested with heparin and heparin fragments against angiogenesis
Excerpt: Deltacortisone has not previously been disclosed for use in combination with heparin fragments generally, or pentosan polysulfate.

[4] = tested on: transitional cell carcinoma; test: Subcutaneous transitional cell carcinoma in mice, oral or injected therapy; assay type: in vivo
Procedure: 100 mice injected with live transitional cell carcinoma subcutaneously, and were grown to a maximum size of 2 cm prior to therapy. The mice were given SP₅₄ and hydrocortisone orally and by injection. The composition was orally administered with SP₅₄ at 0.06 mg/ml and hydrocortisone at 0.5 mg/ml in drinking water. In others the composition was injected with 0.66 mg/ml SP₅₄ and hydrocortisone at 3 mg/ml twice daily, 0.55 ml.

SMILES | overcoming angiogenesis [3] | also measured
C[C@H]1C[C@@H]2[C@H]([C@@H](O)C[C@@]3(C)[C@H]2CC[C@]3(O)C(=O)CO)[C@@]2(C)C=CC(=O)C=C12 [6 alpha-methyl-prednisolone] |  | effect on tumor angiogenesis [1]: partially suppressed
C[C@]12C=CC(=O)C=C1CC[C@@H]1[C@@H]2C(=O)C[C@@]2(C)[C@H]1CC[C@]2(O)C(=O)CO [Deltacortisone] |  | water solubility [2]: not water soluble to a sufficiently substantial extent
CC(C)CCC[C@@H](C)[C@H]1CC[C@H]2[C@@H]3CC=C4C[C@@H](O)CC[C@]4(C)[C@H]3CC[C@]12C [cholesterol] | ineffective | 
C[C@]12CCC(=O)C=C1CC[C@@H]1[C@@H]2CC[C@@]2(C)[C@H]1CC[C@]2(O)C(=O)CO [cortexolone] | ineffective | 
C[C@]12C[C@H](O)[C@H]3[C@@H](CCC4=CC(=O)CC[C@@]43C)[C@@H]1CC[C@@H]2C(=O)CO [corticosterone] | ineffective | 
C[C@]12CCC(=O)C=C1CC[C@@H]1[C@@H]2[C@@H](O)C[C@@]2(C)[C@H]1CC[C@]2(O)C(=O)CO [hydrocortisone] |  | effect on tumor ([4]; SP₅₄ eliminated from treatment): regression of tumor; lung metastasis ([4]; mice with transitional cell carcinoma after treatment): found to have lung metastasis
CC(=O)[C@H]1CC[C@H]2[C@@H]3CC=C4C[C@@H](O)CC[C@]4(C)[C@H]3CC[C@]12C [pregnenolone] | ineffective | 
CC(=O)[C@H]1CC[C@H]2[C@@H]3CCC4=CC(=O)CC[C@]4(C)[C@H]3CC[C@]12C [progesterone] | ineffective | 
C[C@]12CC[C@H]3[C@@H](CCC4=CC(=O)CC[C@@]43C)[C@@H]1CC[C@@H]2O [testosterone] | ineffective | 
